pIC50: −log10 of the molar value. Like-named read-outs stand apart in the source and are kept apart here.
Legend:
[1] = MTT cell viability assay (cytotoxicity); assay type: cell-based, monkey; conditions: monkey, cytotoxicity towards COS A6 cells cultured in the absence of FCS, read-out: LD50 (the source's name)
Text: (§1) Ex vivo Assay of HIV-1 Polyprotein Processing. COS A6 cells were the result of stable integration of the vector HIV-gpt by transfection of COS-7 cells. This SV40-based vector consists of the HIV-1 HXB2 strain proviral genome where the gp160 sequences were replaced by the […] (gpt) gene. Following transfection, the cells were placed under selection for gpt expression by adding mycophenolic acid to the media. Surviving cells were later cloned and assayed for expression of gag p24 protein by ELISA and Western blots of culture supernatants and whole cell extracts. The cloned COS A6 cell line was maintained in DME H21 supplemented with 10% dialyzed and refiltered fetal calf serum (FCS), antibiotics (100 U/ml penicillin G, 100 µg/ml streptomycin sulfate), hypoxanthine (14 µg/ml), xanthine (250 µg/ml), and mycophenolic acid (25 µg/ml), at 37°C and 5% CO2.
(§2) MTT Cell Viability Assay. Cell survival was assessed by a quantitative colorimetric assay. The tetrazolium salt 3-(4,5-dimethylthiazol-2-yl)2,5-diphenyltetrazolium bromide (MTT) is cleaved by dehydrogenases in active mitochondria of living cells to yield a change in color from yellow to purple. To obtain the LD50 values for each compound, the concentration was determined at which the absorbance at 550-570 nm was half of that for the untreated cells. Compounds were tested in duplicate, in serial dilutions generally ranging from 10-250 µM concentrations in the presence of 0-0.1% DMSO. MTT assays were carried out in both the presence and absence of 10% FCS.
(§3) Cytotoxicity of compounds (LD50) and their ability to inhibit capsid protein processing ex vivo during 4 hour incubations (IC50) were studied. A plasmid which encodes the HIV-1 proviral genome, with the exception of the […] envelope protein, was stably introduced into the monkey cell line COS 7. Cloned progeny, COS A6 cells, constitutively release viral capsids into the media. Inhibition of polyprotein processing was determined by measuring the amount of p24 present in the viral capsid samples with an ELISA assay. The decrease in the amount of detectable p24 antigen correlated with a specific inhibition of HIV PR activity, judged by the accumulation of capsid precursor in conjunction with a disappearance of the p24 mature protein band in Western blots. The MTT stain assay was used to obtain LD50 values for all the compounds tested.

[2] = molecular target: porcine pepsin (Sus scrofa, UniProt P00791); assay: Pepsin inhibition, standard conditions; assay type: biochemical; conditions: absence of DMSO
Method: (§4) Enzyme Assays. HIV-1, HIV-2, and SIV PRs were assayed against the decapeptide corresponding to the HIV-1 PR C-terminal autoprocessing site, by means of a discontinuous HPLC assay. Recombinant human renin and porcine pepsin were obtained and assayed using standard conditions. Bovine cathepsin D and its chromogenic substrate were purchased from Sigma. The enzyme was assayed by standard methods.
(§5) Stock solutions of the porphyrin derivatives (1 µ M-10mM) in 100% DMSO were used in IC50 determinations. Since many of the derivatives were insoluble in buffer alone, including the free acid forms of the carborane compounds, DMSO was used to increase solubility and allow a comparison of the binding affinity. Compounds were added to buffer solutions containing additional DMSO to give a final concentration of 5%. Control reactions contained 5% DMSO only. Enzymes were preincubated with inhibitor for 1 minute at 25°C, followed by addition of substrate to initiate the reaction. As earlier noted, assays were also carried out in the absence of DMSO, when possible. Dipotassium salts of several of the inhibitors were soluble in aqueous solution and were assayed in the absence of DMSO for K1 and IC50 determinations.

[3] = test system: C6 glioma; assay: Colony survival (cytotoxicity); assay type: cell-based; conditions: in the presence of FCS, read-out: LD50 (the source's name)
[4] = test system: COS A6 cells; assay: MTT cell viability assay (cytotoxicity); assay type: cell-based, monkey; conditions: cytotoxicity towards COS A6 cells cultured in the absence of FCS, read-out: LD50 (the source's name)
Text: as §1, §2, §3

[5] = test system: V79 CHO cells; assay: Colony survival (cytotoxicity); assay type: cell-based; conditions: in the presence of FCS, read-out: LD50 (the source's name)
[6] = molecular target: T1, Recombinant HIV-2 protease (HIV-2 PR) (Human immunodeficiency virus type 2 subtype A, UniProt P04584); assay: HIV-2 protease inhibition, discontinuous HPLC assay of decapeptide cleavage; assay type: biochemical
T1 construct: Recombinant HIV-2 protease (HIV-2 PR) and SIV protease (SIV PR) were expressed and purified; made in house; host or cells: strain X90 (E. coli by own knowledge)
Method: (§6) Recombinant Protein Preparation. Recombinant HIV-1 protease (HIV-1 PR) was expressed and purified from E. coli strain D1210 using the pSOD/PR179 vector. Recombinant HIV-2 protease (HIV-2 PR) and SIV protease (SIV PR) were expressed and purified from strain X90 using pTacTac vectors.
as §4, §5

[7] = test system: mice; assay: Tolerance in mice; assay type: in vivo; conditions: doses as high as 200 mg/kg
[8] = molecular target: T2, Recombinant HIV-1 protease (HIV-1 PR) (Human immunodeficiency virus type 1 group M subtype B, UniProt P03369); assay type: biochemical
T2 construct: Recombinant HIV-1 protease (HIV-1 PR) was expressed and purified; made in house; host or cells: E. coli strain D1210
Method: as §6, §4
Stock solutions of the porphyrin derivatives (1 µ M-10mM) in 100% DMSO were used in IC50 determinations. […] Control reactions contained 5% DMSO only. Enzymes were preincubated with inhibitor for 1 minute at 25°C, followed by addition of substrate to initiate the reaction. As earlier noted, assays were also carried out in the absence of DMSO, when possible.
Figure 1 is a Dixon plot of inventive embodiment 5 (which is a representative example of the other embodiments) in inhibition of HIV-1 protease, where purified HIV-1 protease (6 x 10^-1 mg/ml) was incubated with the inventive inhibitor in 50 mM sodium acetate buffer, pH 5.5, containing 1 mM dithiothreitol, 1 mM EDTA, and 1 M NaCl. […] The assay solutions were incubated for 30-45 minutes at 37° and enzyme activity was determined by quantitation of the hydrolysis products on HPLC.

[9] = molecular target: T3, Recombinant human renin (Homo sapiens, UniProt P00797); assay: Renin inhibition, standard conditions; assay type: biochemical; conditions: absence of DMSO
T3 sequence (P00797 67-406): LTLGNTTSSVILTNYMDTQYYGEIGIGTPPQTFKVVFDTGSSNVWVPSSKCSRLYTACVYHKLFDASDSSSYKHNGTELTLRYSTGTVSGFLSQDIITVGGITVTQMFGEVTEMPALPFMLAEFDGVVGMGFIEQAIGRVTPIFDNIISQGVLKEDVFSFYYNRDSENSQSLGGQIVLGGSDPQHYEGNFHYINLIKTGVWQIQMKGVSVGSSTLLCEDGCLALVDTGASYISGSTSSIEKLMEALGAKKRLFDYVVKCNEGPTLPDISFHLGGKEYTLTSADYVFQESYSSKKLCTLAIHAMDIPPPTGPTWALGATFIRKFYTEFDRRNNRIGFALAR
Method: as §4, §5

[10] = molecular target: T4, Bovine cathepsin D (Bos taurus, UniProt P80209); assay: Cathepsin D inhibition, chromogenic substrate; assay type: biochemical; conditions: absence of DMSO
T4 construct: purchased Sigma
Method: as §4, §5

[11] = molecular target: T5, SIV protease (SIV PR) (Simian immunodeficiency virus, UniProt P05896); assay: SIV protease inhibition, discontinuous HPLC assay of decapeptide cleavage; assay type: biochemical; conditions: absence of DMSO
T5 construct: SIV protease (SIV PR) were expressed and purified from strain X90; made in house; host or cells: strain X90 (E. coli by own knowledge)
Method: as §6, §4
as §5, with “Dipotassium salts of several of the inhibitors were soluble in aqueous solution and were assayed in the absence of DMSO for K1 and IC50 determinations.” left out

T1 sequence (P04584 514-612 limits assumed): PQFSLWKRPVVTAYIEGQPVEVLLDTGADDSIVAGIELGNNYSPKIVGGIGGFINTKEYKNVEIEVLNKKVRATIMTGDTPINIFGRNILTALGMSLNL
Sequence of porcine pepsin (P00791 60-385): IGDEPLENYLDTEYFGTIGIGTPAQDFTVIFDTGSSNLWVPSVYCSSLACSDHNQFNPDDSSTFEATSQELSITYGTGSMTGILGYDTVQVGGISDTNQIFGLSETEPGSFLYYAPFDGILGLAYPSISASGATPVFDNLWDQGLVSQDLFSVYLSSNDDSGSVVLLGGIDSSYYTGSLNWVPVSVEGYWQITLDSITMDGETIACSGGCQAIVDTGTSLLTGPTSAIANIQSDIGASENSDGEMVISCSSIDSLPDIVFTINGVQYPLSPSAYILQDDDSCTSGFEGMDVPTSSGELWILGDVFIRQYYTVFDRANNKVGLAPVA
T4 sequence (P80209 45-390): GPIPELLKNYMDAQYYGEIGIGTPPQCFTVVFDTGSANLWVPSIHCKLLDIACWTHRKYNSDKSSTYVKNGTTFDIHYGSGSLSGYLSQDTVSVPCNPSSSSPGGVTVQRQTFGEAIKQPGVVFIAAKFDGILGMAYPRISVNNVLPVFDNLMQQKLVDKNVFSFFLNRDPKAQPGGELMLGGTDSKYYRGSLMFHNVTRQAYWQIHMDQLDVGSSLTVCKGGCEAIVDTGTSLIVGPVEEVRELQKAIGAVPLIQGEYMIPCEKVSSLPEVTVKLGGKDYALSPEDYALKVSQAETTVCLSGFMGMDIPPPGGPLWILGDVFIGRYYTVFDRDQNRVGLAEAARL
T5 sequence (P05896 501-596): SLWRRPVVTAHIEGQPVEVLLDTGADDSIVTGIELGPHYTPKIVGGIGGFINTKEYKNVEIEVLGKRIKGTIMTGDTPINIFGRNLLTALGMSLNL

In the case of `CC1=C(C(O)CO)c2cc3nc(cc4[nH]c(cc5[nH]c(cc1n2)c(C)c5CCC(=O)O)c(CCC(=O)O)c4C)C(C(O)CO)=C3C` (centres unmarked) [Comparative Embodiment 12], the CC50 [1] was 250 µM.

`CC1=C(C(COC(=O)c2ccc(N(C)C)cc2)OC(=O)c2ccc(N(C)C)cc2)c2cc3nc(cc4[nH]c(cc5[nH]c(cc1n2)c(C)c5CCC(=O)O)c(CCC(=O)O)c4C)C(C(COC(=O)c1ccc(N(C)C)cc1)OC(=O)c1ccc(N(C)C)cc1)=C3C` (centres unmarked) [Comparative Embodiment 9] gave a CC50 [1] of over 250 µM.

`CC1=C(C(COC(=O)c2ccccc2)OC(=O)c2ccccc2)c2cc3nc(cc4[nH]c(cc5[nH]c(cc1n2)c(C)c5CCC(=O)O)c(CCC(=O)O)c4C)C(C(COC(=O)c1ccccc1)OC(=O)c1ccccc1)=C3C` (centres unmarked) [Comparative Embodiment 10] showed a CC50 [1] of 250 µM.

`CC1=C(C(COC(=O)c2ccc3ccccc3c2)OC(=O)c2ccc3ccccc3c2)c2cc3nc(cc4[nH]c(cc5[nH]c(cc1n2)c(C)c5CCC(=O)O)c(CCC(=O)O)c4C)C(C(COC(=O)c1ccc2ccccc2c1)OC(=O)c1ccc2ccccc2c1)=C3C` (centres unmarked) [Comparative Embodiment 11] gave a CC50 [1] of 250 µM.

In the case of “tetra-carborane carboxylate ester of 2,4-Di(α,β-dihydroxyethyl)deuteroporphyrin (IX) [Inventive Embodiment 1]”, the “concentrations readily prepared in water (water solubility)” value was 100 to 200 mg/mL, the pIC50 [2] was 5.40 and the CC50 [3] was 100 to 125 µM. For the same compound, the CC50 [4] was 25 µM, the CC50 [5] was at least 150 µM and the pIC50 ([6]; absence of DMSO, dipotassium salts in aqueous solution, read-out: IC50 HIV-2 PR) was 6.64. For the same compound, the pIC50 ([6]; in the presence of 5% DMSO, read-out: IC50 in vitro HIV-2) was 6.15, the pIC50 ([6]; matches the series without DMSO, read-out: IC50 HIV-2 protease) was 6.64 and the “tolerance in mice (morbidity or mortality)” value [7] was “no apparent signs of morbidity or mortality”. For the same compound, the pIC50 ([8]; absence of DMSO, dipotassium salts in aqueous solution, read-out: IC50 HIV-1 PR) was 7.30, the “fold more effective for HIV-1 PR than for HIV-2 and SIV PRs” value ([8]; from Table 4, absence of DMSO) was “approximately 5 fold” and the “fold more inhibitory for HIV-1 PR compared to cellular aspartyl proteases” value ([8]; from Table 4, absence of DMSO, listed as Inventive embodiment 1) was “at least 60 fold”. For the same compound, the “fold more inhibitory for HIV-1 PR compared to cellular aspartyl proteases” value ([8]; from Table 4, absence of DMSO, listed as inventive embodiment 1) was “at least a sixty-fold”, the pIC50 ([8]; in the presence of 5% DMSO, read-out: IC50 in vitro HIV-1) was 6.73 and the “decrease of inhibition of HIV-1 PR by fetal calf serum” value ([8]; incubation with 0.1% FCS, 50 nM inhibitor) was “more than 50%”. The pIC50 ([8]; matches the series without DMSO, read-out: IC50 HIV-1 protease) was 7.30, the pIC50 [9] was 5.52 and the pIC50 [10] was 5.00. The pIC50 [11] was 6.60.

— EP0658109B1, “METALLO PORPHYRIN COMPOSITIONS” (priority 1992, dated 1994)
